The values that follow come from US20230255966A1, “A COMBINATION OF A CBP/P300 BROMODOMAIN INHIBITOR AND AN EGFR INHIBITOR FOR USE IN TREATING EGFR-MUTANT NSCLC” (TOLREMO THERAPEUTICS AG, priority 2020, published 2023).

For this experiment, the system named is HCC827 cells. Briefly: Cell counting by nuclear fluorescent staining (Hoechst33342). Type of experiment: cell-based. The protocol: Several plates were seeded, as for each time point of cell counting one plate was fixed and stained for analysis. […] Cell cultivation was continued until time of fixation and analysis for each plate. For extended time-points, medium and drugs were replenished twice weekly.
At the given time plates were washed 3 times with PBS and cells fixed with 80 μl 4% PFA for 10 min, RT. After 3 wash steps with PBS cells were stained with 10 μg/ml Hoechst33342 (Thermo Scientific H12492) in 100 μl PBS for 2 h, RT, dark. After 3× PBS washing-steps, Hoechst33342 signals were acquired on in an automated imaging mode using a Zeiss Apotome with motorized X/Y stage and a 5× objective. Image analysis and determination of Hoechst33342 spots (nuclei) was done using ImageJ. Number of nuclei was plotted as function of time using GraphPad Prism.

Consider `CO[C@H]1CC[C@H](n2c([C@@H]3CCCC(=O)N3c3ccc(F)c(F)c3)nc3cc(-c4c(C)noc4C)ccc32)CC1` [CCS1477], for which the “Effect on cell proliferation as single agent” value (absence of EGFR inhibitor (FIG. 3 left)) is “do not affect cell proliferation”. In addition, the “Anti-proliferative activity / re-growth in presence of Gefitinib” value (in presence of 300 nM Gefitinib (FIG. 3)) is “potentiate the effect of the EGFR inhibitor”.
